Reference: the supplement of paper PMC10307832

Columns and labels:
Experiment in all cases: relative viability (nuclei count vs DMSO), 5 days (fraction); higher = more cells survive
201T = test system: 201T
Procedure, shortened: (§1)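 Each reported value is a median over duplicate plates. It expresses relative viability: treated-well nuclei count divided by vehicle-well nuclei count. Lung cancer cell lines in 1536-well plates were dosed by pin tool a day after seeding, alone with one drug or with a fixed anchor-drug dose plus five library-drug doses (not always all listed) in √10 steps, and nuclei were counted after 5 days.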

ABC-1 = test system: ABC-1
Procedure, shortened: as §1

BEN = test system: BEN
Procedure, shortened: as §1

CAL-12T = test system: CAL-12T
Procedure, shortened: as §1

COR-L 105 = test system: COR-L 105
Procedure, shortened: as §1

EKVX = test system: EKVX
Procedure, shortened: as §1

HARA = test system: HARA
Procedure, shortened: as §1

HCC-366 = test system: HCC-366
Procedure, shortened: as §1

LK-2 = test system: LK-2
Procedure, shortened: as §1

LOU-NH91 = test system: LOU-NH91
Procedure, shortened: as §1

NCI-H1437 = test system: NCI-H1437
Procedure, shortened: as §1

NCI-H1666 = test system: NCI-H1666
Procedure, shortened: as §1

NCI-H2009 = test system: NCI-H2009
Procedure, shortened: as §1

NCI-H2170 = test system: NCI-H2170
Procedure, shortened: as §1

NCI-H3122 = test system: NCI-H3122
Procedure, shortened: as §1

NCI-H441 = test system: NCI-H441
Procedure, shortened: as §1

NCI-H460 = test system: NCI-H460
Procedure, shortened: as §1

NCI-H661 = test system: NCI-H661
Procedure, shortened: as §1

NCI-H727 = test system: NCI-H727
Procedure, shortened: as §1

PC-14 = test system: PC-14
Procedure, shortened: as §1

Work on `COc1cc2nccc(Oc3ccc(NC(=O)Nc4cc(C)on4)c(Cl)c3)c2cc1OC` [Tivozanib] + Cc1nc(NC(=O)N2CCC[C@H]2C(N)=O)sc1-c1ccnc(C(C)(C)C(F)(F)F)c1 [Alpelisib] (partner 2 µM) yielded a relative viability (201T; first compound 0.005 µM) of 0.993, a relative viability (201T; first compound 0.01581 µM) of 1 and a relative viability (201T; first compound 0.05 µM) of 1.05. The relative viability (201T; first compound 0.1581 µM) was 1.02, the relative viability (201T; first compound 0.5 µM) was 1.08 and the relative viability (ABC-1; first compound 0.005 µM) was 0.971. The relative viability (ABC-1; first compound 0.01581 µM) was 0.99, the relative viability (ABC-1; first compound 0.05 µM) was 0.917 and the relative viability (ABC-1; first compound 0.1581 µM) was 1.27. It also gave a relative viability (ABC-1; first compound 0.5 µM) of 1.08, a relative viability (BEN; first compound 0.005 µM) of 0.991 and a relative viability (BEN; first compound 0.01581 µM) of 1.04. It also gave a relative viability (BEN; first compound 0.05 µM) of 1.03, a relative viability (BEN; first compound 0.5 µM) of 1.05 and a relative viability (CAL-12T; first compound 0.005 µM) of 1.11. It also gave a relative viability (CAL-12T; first compound 0.01581 µM) of 1.07, a relative viability (CAL-12T; first compound 0.05 µM) of 1.31 and a relative viability (CAL-12T; first compound 0.5 µM) of 1.32. It also gave a relative viability (COR-L 105; first compound 0.01581 µM) of 1.2, a relative viability (COR-L 105; first compound 0.05 µM) of 0.933 and a relative viability (COR-L 105; first compound 0.1581 µM) of 1.04. For the same compound, the relative viability (COR-L 105; first compound 0.5 µM) was 1.07, the relative viability (EKVX; first compound 0.005 µM) was 0.903 and the relative viability (EKVX; first compound 0.01581 µM) was 0.93. The relative viability (EKVX; first compound 0.05 µM) was 0.958, the relative viability (EKVX; first compound 0.1581 µM) was 0.888 and the relative viability (EKVX; first compound 0.5 µM) was 0.872. It also gave a relative viability (HARA; first compound 0.005 µM) of 0.911, a relative viability (HARA; first compound 0.01581 µM) of 0.838 and a relative viability (HARA; first compound 0.05 µM) of 0.908. It also gave a relative viability (HARA; first compound 0.1581 µM) of 0.877, a relative viability (HARA; first compound 0.5 µM) of 0.798 and a relative viability (HCC-366; first compound 0.005 µM) of 0.297. For the same compound, the relative viability (HCC-366; first compound 0.01581 µM) was 0.448, the relative viability (HCC-366; first compound 0.05 µM) was 0.381 and the relative viability (HCC-366; first compound 0.1581 µM) was 0.51. It also gave a relative viability (HCC-366; first compound 0.5 µM) of 0.388, a relative viability (LK-2; first compound 0.005 µM) of 0.93 and a relative viability (LK-2; first compound 0.01581 µM) of 1.19. The relative viability (LK-2; first compound 0.05 µM) was 1.55, the relative viability (LK-2; first compound 0.1581 µM) was 0.84 and the relative viability (LK-2; first compound 0.5 µM) was 0.896. It also gave a relative viability (LOU-NH91; first compound 0.005 µM) of 0.69, a relative viability (LOU-NH91; first compound 0.01581 µM) of 0.698 and a relative viability (LOU-NH91; first compound 0.05 µM) of 0.778. The relative viability (LOU-NH91; first compound 0.1581 µM) was 0.732, the relative viability (LOU-NH91; first compound 0.5 µM) was 0.752 and the relative viability (NCI-H1437; first compound 0.005 µM) was 1.02. The relative viability (NCI-H1437; first compound 0.01581 µM) was 1, the relative viability (NCI-H1437; first compound 0.05 µM) was 1 and the relative viability (NCI-H1437; first compound 0.1581 µM) was 0.943. It also gave a relative viability (NCI-H1437; first compound 0.5 µM) of 0.959, a relative viability (NCI-H1666; first compound 0.005 µM) of 1 and a relative viability (NCI-H1666; first compound 0.01581 µM) of 0.853. The relative viability (NCI-H1666; first compound 0.05 µM) was 1.06, the relative viability (NCI-H1666; first compound 0.1581 µM) was 0.965 and the relative viability (NCI-H1666; first compound 0.5 µM) was 1.01. It also gave a relative viability (NCI-H2009; first compound 0.005 µM) of 1.16, a relative viability (NCI-H2009; first compound 0.01581 µM) of 1.08 and a relative viability (NCI-H2009; first compound 0.05 µM) of 1.29. It also gave a relative viability (NCI-H2009; first compound 0.1581 µM) of 1.22, a relative viability (NCI-H2009; first compound 0.5 µM) of 1.19 and a relative viability (NCI-H2170; first compound 0.005 µM) of 0.885. It also gave a relative viability (NCI-H2170; first compound 0.01581 µM) of 0.952, a relative viability (NCI-H2170; first compound 0.05 µM) of 0.799 and a relative viability (NCI-H2170; first compound 0.5 µM) of 0.867. The relative viability (NCI-H3122; first compound 0.005 µM) was 0.668, the relative viability (NCI-H3122; first compound 0.01581 µM) was 0.792 and the relative viability (NCI-H3122; first compound 0.05 µM) was 0.798. The relative viability (NCI-H3122; first compound 0.1581 µM) was 0.973, the relative viability (NCI-H3122; first compound 0.5 µM) was 0.983 and the relative viability (NCI-H441; first compound 0.005 µM) was 0.711. It also gave a relative viability (NCI-H441; first compound 0.01581 µM) of 0.452, a relative viability (NCI-H441; first compound 0.05 µM) of 0.57 and a relative viability (NCI-H441; first compound 0.1581 µM) of 0.632. For the same compound, the relative viability (NCI-H441; first compound 0.5 µM) was 0.56, the relative viability (NCI-H460; first compound 0.005 µM) was 0.483 and the relative viability (NCI-H460; first compound 0.01581 µM) was 0.422. The relative viability (NCI-H460; first compound 0.05 µM) was 0.454, the relative viability (NCI-H460; first compound 0.1581 µM) was 0.609 and the relative viability (NCI-H460; first compound 0.5 µM) was 0.543. The relative viability (NCI-H661; first compound 0.005 µM) was 0.52, the relative viability (NCI-H661; first compound 0.01581 µM) was 0.713 and the relative viability (NCI-H661; first compound 0.05 µM) was 0.609. For the same compound, the relative viability (NCI-H661; first compound 0.1581 µM) was 0.302, the relative viability (NCI-H661; first compound 0.5 µM) was 0.525 and the relative viability (NCI-H727; first compound 0.005 µM) was 0.505. For the same compound, the relative viability (NCI-H727; first compound 0.01581 µM) was 0.501, the relative viability (NCI-H727; first compound 0.05 µM) was 0.675 and the relative viability (NCI-H727; first compound 0.5 µM) was 0.615. For the same compound, the relative viability (PC-14; first compound 0.005 µM) was 0.89, the relative viability (PC-14; first compound 0.01581 µM) was 0.993 and the relative viability (PC-14; first compound 0.05 µM) was 1.07. It also gave a relative viability (PC-14; first compound 0.1581 µM) of 0.911 and a relative viability (PC-14; first compound 0.5 µM) of 0.873.
